Results published in ChEMBL document CHEMBL4387773, “Identification of potent, selective and orally bioavailable phenyl ((R)-3-phenylpyrrolidin-3-yl)sulfone analogues as RORγt inverse agonists” (Bioorg Med Chem Lett, 2019).

Assays:
[1] = target: T1, Oxysterols receptor LXR-alpha (Homo sapiens, UniProt Q13133); assay: Transactivation of human GAL4-fused LXRalpha expressed in African green monkey CV1 cells; type: cell-based
T1 sequence (Q13133 whole entry): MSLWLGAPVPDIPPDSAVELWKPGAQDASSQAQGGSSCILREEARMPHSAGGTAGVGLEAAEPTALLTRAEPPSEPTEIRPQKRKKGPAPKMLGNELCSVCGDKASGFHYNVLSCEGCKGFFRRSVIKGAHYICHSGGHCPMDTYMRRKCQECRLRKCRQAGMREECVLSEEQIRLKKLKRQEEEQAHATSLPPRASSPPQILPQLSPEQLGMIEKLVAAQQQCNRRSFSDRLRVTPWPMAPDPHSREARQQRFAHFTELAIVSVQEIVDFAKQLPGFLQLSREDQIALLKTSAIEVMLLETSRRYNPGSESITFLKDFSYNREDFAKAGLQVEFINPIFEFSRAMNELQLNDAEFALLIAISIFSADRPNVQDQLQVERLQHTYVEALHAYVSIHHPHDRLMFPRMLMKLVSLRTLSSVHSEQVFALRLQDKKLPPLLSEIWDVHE

[2] = target: T2, Nuclear receptor subfamily 1 group I member 2 (Homo sapiens, UniProt O75469); assay: Transactivation of PXR (unknown origin) expressed in human HepG2 cells; type: cell-based
T2 sequence (O75469 whole entry): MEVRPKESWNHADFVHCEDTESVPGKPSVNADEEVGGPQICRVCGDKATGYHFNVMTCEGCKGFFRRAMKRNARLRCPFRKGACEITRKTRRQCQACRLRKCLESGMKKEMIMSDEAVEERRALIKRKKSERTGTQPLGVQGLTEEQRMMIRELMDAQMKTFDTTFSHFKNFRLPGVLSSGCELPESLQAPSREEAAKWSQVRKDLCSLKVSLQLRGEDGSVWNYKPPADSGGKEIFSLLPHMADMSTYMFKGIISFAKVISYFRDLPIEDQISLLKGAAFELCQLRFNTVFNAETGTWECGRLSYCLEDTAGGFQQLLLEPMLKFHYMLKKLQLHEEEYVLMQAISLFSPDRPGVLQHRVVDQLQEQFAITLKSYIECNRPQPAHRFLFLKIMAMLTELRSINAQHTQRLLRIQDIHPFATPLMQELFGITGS

[3] = target: T3, Nuclear receptor ROR-alpha (Homo sapiens, UniProt P35398); assay: Inverse agonist activity at human Gal4-fused RORalpha LBD (272 to 556 residues) expressed in human Jurkat cells measured after 18 hrs by steady-glo luciferase reporter gene assay; type: cell-based
T3 sequence (P35398 whole entry): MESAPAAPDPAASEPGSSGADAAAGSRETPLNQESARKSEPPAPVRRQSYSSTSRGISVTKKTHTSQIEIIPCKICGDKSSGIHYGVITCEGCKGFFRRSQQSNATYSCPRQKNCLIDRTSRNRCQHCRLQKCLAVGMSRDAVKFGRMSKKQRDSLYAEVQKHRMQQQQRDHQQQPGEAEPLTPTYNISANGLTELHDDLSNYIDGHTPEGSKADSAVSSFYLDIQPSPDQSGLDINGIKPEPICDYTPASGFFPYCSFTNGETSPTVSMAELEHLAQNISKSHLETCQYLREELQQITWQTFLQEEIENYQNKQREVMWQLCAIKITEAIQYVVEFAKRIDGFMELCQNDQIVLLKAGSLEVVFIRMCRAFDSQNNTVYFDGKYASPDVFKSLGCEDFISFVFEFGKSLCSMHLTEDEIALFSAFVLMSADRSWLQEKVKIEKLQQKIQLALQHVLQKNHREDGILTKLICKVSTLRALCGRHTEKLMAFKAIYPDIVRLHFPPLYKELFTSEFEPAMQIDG

[4] = Stability in human liver microsomes assessed as parent compound remaining after 10 mins; type: ADME, Microsome; conditions: for Stability: microsomes, 10 min; for remaining at 10 min: liver microsomes, read-out: Stability
[5] = target: T4, Oxysterols receptor LXR-beta (Homo sapiens, UniProt P55055); assay: Transactivation of human GAL4-fused LXRbeta expressed in African green monkey CV1 cells; type: cell-based
T4 sequence (P55055 whole entry): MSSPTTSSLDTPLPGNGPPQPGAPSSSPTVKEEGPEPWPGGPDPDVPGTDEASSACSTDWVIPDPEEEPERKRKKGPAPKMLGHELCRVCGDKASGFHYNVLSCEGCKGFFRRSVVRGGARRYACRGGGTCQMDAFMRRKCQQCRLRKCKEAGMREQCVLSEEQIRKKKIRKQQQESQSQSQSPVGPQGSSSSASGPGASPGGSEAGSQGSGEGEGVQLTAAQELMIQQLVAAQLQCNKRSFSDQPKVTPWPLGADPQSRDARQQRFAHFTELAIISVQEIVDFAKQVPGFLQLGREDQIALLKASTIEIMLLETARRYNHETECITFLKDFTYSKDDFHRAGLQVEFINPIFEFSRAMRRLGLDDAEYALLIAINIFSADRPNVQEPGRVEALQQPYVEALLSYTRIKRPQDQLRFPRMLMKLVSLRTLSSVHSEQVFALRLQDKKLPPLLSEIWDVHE

[6] = target: T5, Nuclear receptor ROR-beta (Homo sapiens, UniProt Q92753); assay: Inverse agonist activity at human Gal4-fused RORbeta LBD (200 to 559 residues) expressed in human Jurkat cells measured after 18 hrs by steady-glo luciferase reporter gene assay; type: cell-based
T5 sequence (Q92753 whole entry): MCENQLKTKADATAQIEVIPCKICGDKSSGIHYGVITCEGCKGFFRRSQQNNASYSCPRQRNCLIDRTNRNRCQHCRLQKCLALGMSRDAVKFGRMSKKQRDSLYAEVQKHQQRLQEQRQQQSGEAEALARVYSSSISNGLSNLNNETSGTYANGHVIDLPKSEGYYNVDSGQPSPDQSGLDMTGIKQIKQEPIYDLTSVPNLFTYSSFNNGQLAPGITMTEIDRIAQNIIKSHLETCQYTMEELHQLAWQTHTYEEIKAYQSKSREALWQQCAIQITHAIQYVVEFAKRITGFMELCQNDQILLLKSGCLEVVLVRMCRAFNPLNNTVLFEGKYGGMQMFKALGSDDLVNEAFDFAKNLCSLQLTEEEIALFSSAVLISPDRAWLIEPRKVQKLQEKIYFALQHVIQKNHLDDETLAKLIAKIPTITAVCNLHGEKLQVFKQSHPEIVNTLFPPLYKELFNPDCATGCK

[7] = target: T2, Nuclear receptor subfamily 1 group I member 2; assay: (§1) Transactivation of PXR (unknown origin) expressed in human HepG2 cells assessed as maximum receptor activation response relative to control; type: cell-based; conditions: hepg2
[8] = Stability in mouse liver microsomes assessed as parent compound remaining after 10 mins; type: ADME, Microsome; conditions: for remaining at 10 min: liver microsomes, read-out: Stability
PXR = target: T6, PXR (Homo sapiens, UniProt O75469); assay: as §1; type: cell-based; conditions: human HepG2 cells that express PXR, read-out: %max
T6 sequence (O75469 whole entry): T2 sequence (O75469 whole entry)

Row | SMILES | EC50 [1] [µM] | EC50 [2] [µM] | EC50 ([3]; jurkat) [µM] | Stability [4] [%] | EC50 [5] [µM] | EC50 ([6]; jurkat) [µM] | %max [7] [%] | Stability ([8]; microsomes, 10 min) [%] | remaining at 10 min [8] [%] | EC50 [3] [µM] | remaining at 10 min [4] [%] | EC50 [6] [µM] | Emax (PXR) [%]
1 | CS(=O)(=O)C1CCC(C(=O)N2CC[C@](c3ccc(C(F)(C(F)(F)F)C(F)(F)F)cc3)(S(=O)(=O)c3ccc(F)cc3)C2)CC1 (stereo in doubt; 29) | > 7.5 | > 50 | > 40 | 100 | > 7.5 | > 40 | 6 | – | – | – | – | – | –
2 | O=C1NC(=O)C2(CCC(C(=O)N3CC[C@](c4ccc(C(F)(C(F)(F)F)C(F)(F)F)cc4)(S(=O)(=O)c4ccc(F)cc4)C3)CC2)N1 (stereo in doubt; 25) | > 7.5 | > 50 | > 40 | 93 | > 7.5 | > 40 | 3 | 82 | – | – | – | – | –
3 | O=C(O)C1CCC(O)(C(=O)N2CC[C@](c3ccc(C(F)(C(F)(F)F)C(F)(F)F)cc3)(S(=O)(=O)c3ccc(F)cc3)C2)CC1 (stereo in doubt; 12) | > 7.5 | > 50 | – | – | > 7.5 | – | 9 | – | 99 | > 40 | 100 | > 40 | –
4 | O=C(N1CC[C@](c2ccc(C(F)(C(F)(F)F)C(F)(F)F)cc2)(S(=O)(=O)c2ccc(F)cc2)C1)C1(F)CCS(=O)(=O)CC1 | > 7.5 | > 50 | – | – | > 7.5 | – | – | – | 90 | > 40 | 100 | > 40 | 16
5 | O=C([C@H]1CC[C@H](c2nnn[nH]2)CC1)N1CC[C@](c2ccc(C(F)(C(F)(F)F)C(F)(F)F)cc2)(S(=O)(=O)c2ccc(F)cc2)C1 | > 7.5 | > 50 | – | – | > 7.5 | – | – | – | 73 | > 40 | 100 | > 40 | 11
6 | O=C([C@H]1CC[C@H](CO)CC1)N1CC[C@](c2ccc(C(F)(C(F)(F)F)C(F)(F)F)cc2)(S(=O)(=O)c2ccc(F)cc2)C1 | > 7.5 | > 50 | – | – | > 7.5 | – | – | – | 63 | > 40 | 75 | > 40 | 8
7 | O=C([C@H]1CC[C@@](F)(C(=O)O)CC1)N1CC[C@](c2ccc(C(F)(C(F)(F)F)C(F)(F)F)cc2)(S(=O)(=O)c2ccc(F)cc2)C1 | > 7.5 | > 22 | – | – | > 7.5 | – | – | – | 94 | > 40 | 82 | > 40 | 69
8 | O=C(N1CC[C@](c2ccc(C(F)(C(F)(F)F)C(F)(F)F)cc2)(S(=O)(=O)c2ccc(F)cc2)C1)C1(O)CCS(=O)(=O)CC1 | > 7.5 | > 50 | – | – | > 7.5 | – | – | – | 90 | > 40 | 100 | > 40 | 6
